Columns and labels:
[1] = tested on: cultured resident peritoneal rat macrophages; assay: Intracellular calcium concentration [Ca2+]i with Fura-2AM in macrophages; assay type: cell-based
[2] = tested on: glutathione reductase (XE 1.6.4.2); assay: Liver enzyme activity in rats with cyclophosphan hepatotoxicity; conditions: rat liver cytosolic fraction; cyclophosphan 20 mg/kg for 10 days; test substance intraperitoneally 10 mg/kg (compound 2: 0.1 mg/kg)
[3] = tested on: glutathione peroxidase (XE 1.11.1.9); assay: as above; conditions: rat liver cytosolic fraction; cyclophosphan 20 mg/kg for 10 days; test substance intraperitoneally 10 mg/kg (compound 2: 0.1 mg/kg)
[4] = tested on: glutathione-S-transferase (XE 2.5.1.18); assay: as above; conditions: rat liver cytosolic fraction; cyclophosphan 20 mg/kg for 10 days; test substance intraperitoneally 10 mg/kg (compound 2: 0.1 mg/kg)
[5] = tested on: glucose-6-phosphate dehydrogenase (XE 1.1.1.49); assay: as above; conditions: rat liver cytosolic fraction; cyclophosphan 20 mg/kg for 10 days; test substance intraperitoneally 10 mg/kg (compound 2: 0.1 mg/kg)
[6] = tested on: reduced glutathione; assay: Liver reduced glutathione in rats with cyclophosphan hepatotoxicity; conditions: rat liver; cyclophosphan 20 mg/kg for 10 days; test substance intraperitoneally 10 mg/kg (compound 2: 0.1 mg/kg)

SMILES	[Ca2+]i peak ([1]; 200 μM extracellular ATP, macrophages in normal saline, basal level 75±18 nM) [nM]	average [Ca2+]i during plateau phase ([1]; 4 minutes after the addition of ATP (200 μM), normal saline) [nM]	GR [2]	GP [3]	GST [4]	G-6-PDG [5]	GSH [6] [μmol/g protein]
Nc1ncnc2c1ncn2[C@@H]1O[C@H](COP(=O)(O)OP(=O)(O)OP(=O)(O)O)[C@@H](O)[C@H]1O [ATP]	820 ± 105	460 ± 115	–	–	–	–	–
NC(CCC(=O)NC(CS[S+]([O-])CC(NC(=O)CCC(N)C(=O)O)C(=O)NCC(=O)O)C(=O)NCC(=O)O)C(=O)O (stereo not shown) [Example 1, glutathione disulfide S-oxide]	–	–	117.8 ± 12.6 μmol/(min × g protein	27.9 ± 2.2 μmol/(min × g protein	1857 ± 120 μmol/(min × g protein	98.1 ± 13.3 μmol/(min × g protein	11.21 ± 0.56

Source: patent publication US10786577B2, “Pharmaceutical composition comprising glutatione disulfide and glutathione disulfide S-oxide” (OBSCHESTVO S OGRANICHENNOY OTVETSTVENNOSTJU “IVA FARM”, priority 2017, dated 2020)
